Earlier results in paper PMC11966747, “Next Generation Risk Assessment of Acute Neurotoxicity from Organophosphate Exposures Using the In Vitro–In Silico Derived Dietary Comparator Ratio” (Environmental Science & Technology, 2025).
Where two headings read alike, the source gives them in different places.

Key:
[1] = QSAR-based prediction; ref Punt et al. 2022; Moerenhout et al. 2024; cited from earlier work
erythrocyte AChE = erythrocyte AChE (Homo sapiens, UniProt P22303); settings: cited from earlier work; for reported or expected adverse health outcome: human, ref Table S2
[2] = 1714 mg/kg BW (120 g) acute oral, 13 males and 2 females, ref Moon et al. 2015

Sequence of erythrocyte AChE (P22303 32-617 isoform P22303-2 limits assumed): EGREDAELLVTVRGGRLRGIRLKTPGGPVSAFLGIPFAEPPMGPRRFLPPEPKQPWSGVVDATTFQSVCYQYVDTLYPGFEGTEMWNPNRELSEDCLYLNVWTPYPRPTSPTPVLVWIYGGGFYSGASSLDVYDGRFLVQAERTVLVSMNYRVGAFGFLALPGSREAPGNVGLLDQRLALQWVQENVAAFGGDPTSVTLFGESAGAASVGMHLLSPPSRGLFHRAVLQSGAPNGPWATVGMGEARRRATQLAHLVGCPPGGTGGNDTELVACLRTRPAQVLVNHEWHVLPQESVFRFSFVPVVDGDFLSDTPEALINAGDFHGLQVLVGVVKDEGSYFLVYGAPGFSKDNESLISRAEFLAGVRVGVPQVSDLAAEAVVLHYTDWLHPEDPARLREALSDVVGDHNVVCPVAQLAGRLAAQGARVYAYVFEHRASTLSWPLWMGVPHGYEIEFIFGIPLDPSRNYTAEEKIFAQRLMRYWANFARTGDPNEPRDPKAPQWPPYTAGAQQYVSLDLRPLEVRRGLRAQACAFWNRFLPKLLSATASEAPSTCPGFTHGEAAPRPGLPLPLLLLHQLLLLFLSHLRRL

COP(=S)(OC)Oc1ccc([N+](=O)[O-])c(C)c1 [fenitrothion]
0.58 h⁻¹: Oral absorption rate constant [1]
negative: reported or expected adverse health outcome (erythrocyte AChE; single oral 0.042 mg/kg BW, 0.042 mg/kg) | reported or expected adverse health outcome (erythrocyte AChE; single oral 0.06 mg/kg BW, 0.06 mg/kg) | reported or expected adverse health outcome (erythrocyte AChE; single oral 0.083 mg/kg BW, 0.083 mg/kg) | reported or expected adverse health outcome (erythrocyte AChE; single oral 0.09 mg/kg BW, 0.09 mg/kg) | reported or expected adverse health outcome (erythrocyte AChE; single oral 0.17 mg/kg BW, 0.17 mg/kg) | reported or expected adverse health outcome (erythrocyte AChE; single oral 0.18 mg/kg BW, 0.18 mg/kg) | reported or expected adverse health outcome (erythrocyte AChE; single oral 0.25 mg/kg BW, 0.25 mg/kg) | reported or expected adverse health outcome (erythrocyte AChE; single oral 0.33 mg/kg BW, 0.33 mg/kg) | reported or expected adverse health outcome (erythrocyte AChE; single oral 0.36 mg/kg BW, 0.36 mg/kg)
No significant: Reported erythrocyte AChE activity/inhibition (erythrocyte AChE; 0.042 mg/kg BW single oral, 3 volunteers, ref Nosáľ and Hladká. 1968) | Reported erythrocyte AChE activity/inhibition (erythrocyte AChE; 0.083 mg/kg BW single oral, 9 volunteers, ref Nosáľ and Hladká. 1968)
No significant erythrocyte AChE: Reported erythrocyte AChE activity/inhibition (erythrocyte AChE; 0.09 mg/kg BW, first dose of repeated exposure study, 8 male and 4 female volunteers, ref Meaklim et al. 2003) | Reported erythrocyte AChE activity/inhibition (erythrocyte AChE; 0.17 mg/kg BW single oral, 5 volunteers, ref Nosáľ and Hladká. 1968) | Reported erythrocyte AChE activity/inhibition (erythrocyte AChE; 0.18 mg/kg BW, first dose of repeated exposure study, 8 male and 4 female volunteers, ref Meaklim et al. 2003) | Reported erythrocyte AChE activity/inhibition (erythrocyte AChE; 0.25 mg/kg BW single oral, 2 volunteers, ref Nosáľ and Hladká. 1968) | Reported erythrocyte AChE activity/inhibition (erythrocyte AChE; 0.33 mg/kg BW single oral, 5 volunteers, ref Nosáľ and Hladká. 1968)
No significant symptoms: Reported concomitant effects (signs and symptoms) (erythrocyte AChE; 0.06 mg/kg BW single oral, 3 male volunteers, ref Meaklim et al. 2003) | Reported concomitant effects (signs and symptoms) (erythrocyte AChE; 0.18 mg/kg BW single oral, 3 male volunteers, ref Meaklim et al. 2003)
Significantly decreased: Reported erythrocyte AChE activity/inhibition (erythrocyte AChE; [2])
toxic symptoms occurred: Reported concomitant effects (signs and symptoms) (erythrocyte AChE; [2])
No symptoms or adverse effects: Reported concomitant effects (signs and symptoms) (erythrocyte AChE; 0.36 mg/kg BW single oral, 3 male volunteers, ref Meaklim et al. 2003)
Toxic symptoms occurred: Reported concomitant effects (signs and symptoms) (erythrocyte AChE; 36 mg/kg BW (2.5 g) acute oral, person, ref Kojima et al. 1989) | Reported concomitant effects (signs and symptoms) (erythrocyte AChE; 71 mg/kg BW (5 g) acute oral, person, ref Yoshida and Kuroki. 2010 (original data of Koyama et al. 2006)) | Reported concomitant effects (signs and symptoms) (erythrocyte AChE; 143 mg/kg BW (10 g) acute oral, person, ref Yoshida and Kuroki. 2010 (original data of Koyama et al. 2006)) | Reported concomitant effects (signs and symptoms) (erythrocyte AChE; 214 mg/kg BW (15 g) acute oral, person five, ref Yoshida and Kuroki. 2010 (original data of Koyama et al. 2006)) | Reported concomitant effects (signs and symptoms) (erythrocyte AChE; 214 mg/kg BW (15 g) acute oral, person three, ref Yoshida and Kuroki. 2010 (original data of Koyama et al. 2006)) | Reported concomitant effects (signs and symptoms) (erythrocyte AChE; 286 mg/kg BW (20 g) acute oral, person, ref Sakamoto et al. 1984) | Reported concomitant effects (signs and symptoms) (erythrocyte AChE; 357 mg/kg BW (25 g) acute oral, person eleven, ref Yoshida and Kuroki. 2010 (original data of Koyama et al. 2006)) | Reported concomitant effects (signs and symptoms) (erythrocyte AChE; 357 mg/kg BW (25 g) acute oral, person twelve, ref Yoshida and Kuroki. 2010 (original data of Koyama et al. 2006)) | Reported concomitant effects (signs and symptoms) (erythrocyte AChE; 357 mg/kg BW (25 g) acute oral, person, ref Martinez-Chuecos et al. 1992) | Reported concomitant effects (signs and symptoms) (erythrocyte AChE; 429 mg/kg BW (30 g) acute oral, person, ref Yoshida et al. 1987) | Reported concomitant effects (signs and symptoms) (erythrocyte AChE; 429 mg/kg BW (30.0 ± 19.7 g) acute oral, 4 males and 6 females, ref Inoue et al. 2008) | Reported concomitant effects (signs and symptoms) (erythrocyte AChE; 500 mg/kg BW (35 g) acute oral, person fourteen, ref Yoshida and Kuroki. 2010 (original data of Koyama et al. 2006)) | Reported concomitant effects (signs and symptoms) (erythrocyte AChE; 500 mg/kg BW (35 g) acute oral, person two, ref Yoshida and Kuroki. 2010 (original data of Koyama et al. 2006)) | Reported concomitant effects (signs and symptoms) (erythrocyte AChE; 536 mg/kg BW (37.5 g) acute oral, person, ref Yoshida and Kuroki. 2010 (original data of Koyama et al. 2006)) | Reported concomitant effects (signs and symptoms) (erythrocyte AChE; 571 mg/kg BW (40 g) acute oral, person, ref Park and Choi. 2017) | Reported concomitant effects (signs and symptoms) (erythrocyte AChE; 714 mg/kg BW (50 g) acute oral, person eight, ref Yoshida and Kuroki. 2010 (original data of Koyama et al. 2006)) | Reported concomitant effects (signs and symptoms) (erythrocyte AChE; 714 mg/kg BW (50 g) acute oral, person four, ref Yoshida and Kuroki. 2010 (original data of Koyama et al. 2006)) | Reported concomitant effects (signs and symptoms) (erythrocyte AChE; 714 mg/kg BW (50 g) acute oral, person nine, ref Yoshida and Kuroki. 2010 (original data of Koyama et al. 2006)) | Reported concomitant effects (signs and symptoms) (erythrocyte AChE; 714 mg/kg BW (50 g) acute oral, person one, ref Yoshida and Kuroki. 2010 (original data of Koyama et al. 2006)) | Reported concomitant effects (signs and symptoms) (erythrocyte AChE; 714 mg/kg BW (50 g) acute oral, person ten, ref Yoshida and Kuroki. 2010 (original data of Koyama et al. 2006)) | Reported concomitant effects (signs and symptoms) (erythrocyte AChE; 714 mg/kg BW (50 g) acute oral, person thirteen, ref Yoshida and Kuroki. 2010 (original data of Koyama et al. 2006)) | Reported concomitant effects (signs and symptoms) (erythrocyte AChE; 1786 mg/kg BW (125.0 ± 35.4 g) acute oral, one male and one female, ref Inoue et al. 2008)
Yes: reported or expected adverse health outcome (erythrocyte AChE; single oral 36 mg/kg BW, listed as Fenitrothion, 36 mg/kg) | reported or expected adverse health outcome (erythrocyte AChE; single oral 71 mg/kg BW, listed as Fenitrothion, 71 mg/kg)
No: reported or expected adverse health outcome (erythrocyte AChE; single oral 0.042 mg/kg BW, listed as Fenitrothion, 0.042 mg/kg) | reported or expected adverse health outcome (erythrocyte AChE; single oral 0.06 mg/kg BW, listed as Fenitrothion, 0.06 mg/kg) | reported or expected adverse health outcome (erythrocyte AChE; single oral 0.083 mg/kg BW, listed as Fenitrothion, 0.083 mg/kg) | reported or expected adverse health outcome (erythrocyte AChE; single oral 0.09 mg/kg BW, listed as Fenitrothion, 0.09 mg/kg) | reported or expected adverse health outcome (erythrocyte AChE; single oral 0.17 mg/kg BW, listed as Fenitrothion, 0.17 mg/kg) | reported or expected adverse health outcome (erythrocyte AChE; single oral 0.18 mg/kg BW, listed as Fenitrothion, 0.18 mg/kg) | reported or expected adverse health outcome (erythrocyte AChE; single oral 0.25 mg/kg BW, listed as Fenitrothion, 0.25 mg/kg) | reported or expected adverse health outcome (erythrocyte AChE; single oral 0.33 mg/kg BW, listed as Fenitrothion, 0.33 mg/kg) | reported or expected adverse health outcome (erythrocyte AChE; single oral 0.36 mg/kg BW, listed as Fenitrothion, 0.36 mg/kg)
positive: reported or expected adverse health outcome (erythrocyte AChE; single oral 36 mg/kg BW, 36 mg/kg) | reported or expected adverse health outcome (erythrocyte AChE; single oral 71 mg/kg BW, 71 mg/kg)
